In patent publication US20160046618A1, “Cyclopropyl Fused Thiazin-2-Amine Compounds as Beta-Secretase Inhibitors and Methods of Use” (AMGEN INC., priority 2014, published 2016):

Columns and labels:
[1] = system: Aβ40 in conditioned medium of cells stably expressing Amyloid Precursor Protein (APP); test: In vitro BACE-1 cell-based assay (Aβ40 sandwich ELISA); details: read-out: IC50 IP (μM) BACE1 cell
Procedure, shortened: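 Aβ40 in supernatants measured by time-resolved fluorescence sandwich ELISA, with pAb40 as capture and biotin-6E10 as detector antibody, each incubated at 4 °C.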

human recombinant BACE1 = human recombinant BACE1 (Homo sapiens (Human), UniProt P56817); test: In vitro enzymatic BACE1 FRET assay; format: biochemical; details: read-out: IC50 IP (μM) BACE1 enzyme
Procedure, shortened: (§1)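 Reactions were initiated by adding 50 nM of a peptide carrying fluorophore and quencher on opposite sides of the cleavage site and ran for one hour. Tris buffer then brought the pH to neutrality, ending the reaction, and fluorescence was measured (488 nm excitation, 590 nm emission).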

Recombinant Cat D = Recombinant Cat D (Homo sapiens (Human), UniProt P07339); test: In vitro enzymatic Cathepsin D (Cat D) FRET assay; format: biochemical; details: read-out: IC50 IP (μM) CatD
Procedure, shortened: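 Human Cat D expressed in CHO cells was incubated for one hour in 0.05 M citrate pH 3.5, 5 mM CHAPS, 10% DMSO final, with 20 nM quenched FRET peptide substrate. Reactions were stopped with Tris buffer raising pH to neutrality. Cleavage was read as fluorescence at excitation 500 nm, emission 580 nm.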

human recombinant BACE2 = human recombinant BACE2 (Homo sapiens (Human), UniProt Q9Y5Z0); test: In vitro enzymatic BACE2 FRET assay; format: biochemical; details: read-out: IC50 IP (μM) BACE2 enzyme
Procedure, shortened: as §1

Aβ 40 in rat CSF = test: In vivo inhibition of beta-secretase: Aβ40 reduction in rat CSF; details: 10 mpk, after 4 h
Procedure, shortened: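 Male Sprague Dawley rats (200 g) dosed orally in 2% HPMC, 1% Tween80, pH 2.2, at 3, 10 or 30 mg/kg; CSF and brain taken 4 h later. Brain homogenate centrifuged at 355,000 g; Aβ40 measured by ECL sandwich ELISA (4G8 capture, Abeta40 C-terminal Fab detection), as % reduction versus vehicle controls.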

Aβ 40 in rat brain = test: In vivo inhibition of beta-secretase: Aβ40 reduction in rat brain; details: 10 mpk, after 4 h
Procedure, shortened: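 Rats were dosed by oral gavage at up to 100 mg/kg in 2% HPMC, 1% Tween80, pH 2.2, with vehicle-only controls. Supernatant Aβ40 was measured by ECL sandwich ELISA with biotinylated-4G8 capture and C-terminal Fab40 detection.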

Chain of human recombinant BACE2 (Q9Y5Z0 63-518): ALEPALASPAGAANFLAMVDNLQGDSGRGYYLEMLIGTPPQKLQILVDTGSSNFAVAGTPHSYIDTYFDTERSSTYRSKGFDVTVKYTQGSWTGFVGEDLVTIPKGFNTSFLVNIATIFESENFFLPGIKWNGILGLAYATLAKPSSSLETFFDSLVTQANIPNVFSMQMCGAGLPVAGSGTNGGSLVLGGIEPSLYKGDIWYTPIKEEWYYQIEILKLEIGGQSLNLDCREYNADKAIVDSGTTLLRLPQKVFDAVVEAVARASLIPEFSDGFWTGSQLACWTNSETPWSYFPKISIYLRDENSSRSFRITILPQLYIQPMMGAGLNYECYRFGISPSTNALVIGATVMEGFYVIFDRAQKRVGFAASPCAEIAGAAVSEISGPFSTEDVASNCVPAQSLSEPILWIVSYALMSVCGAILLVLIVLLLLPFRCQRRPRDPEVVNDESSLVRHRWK
Chain of human recombinant BACE1 (P56817 46-501): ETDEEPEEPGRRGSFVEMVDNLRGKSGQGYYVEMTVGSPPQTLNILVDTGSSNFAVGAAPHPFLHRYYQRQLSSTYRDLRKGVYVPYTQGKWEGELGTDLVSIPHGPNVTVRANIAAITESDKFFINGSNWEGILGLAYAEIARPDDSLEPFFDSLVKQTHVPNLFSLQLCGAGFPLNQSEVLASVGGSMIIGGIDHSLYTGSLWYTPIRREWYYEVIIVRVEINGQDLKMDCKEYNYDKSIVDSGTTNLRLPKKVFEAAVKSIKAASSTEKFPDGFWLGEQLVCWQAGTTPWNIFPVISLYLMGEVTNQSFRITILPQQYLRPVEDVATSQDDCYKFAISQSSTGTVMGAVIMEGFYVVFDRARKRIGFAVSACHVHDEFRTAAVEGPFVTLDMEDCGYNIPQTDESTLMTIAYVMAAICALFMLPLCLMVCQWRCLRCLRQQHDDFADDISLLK
Chain of Recombinant Cat D (P07339 65-412): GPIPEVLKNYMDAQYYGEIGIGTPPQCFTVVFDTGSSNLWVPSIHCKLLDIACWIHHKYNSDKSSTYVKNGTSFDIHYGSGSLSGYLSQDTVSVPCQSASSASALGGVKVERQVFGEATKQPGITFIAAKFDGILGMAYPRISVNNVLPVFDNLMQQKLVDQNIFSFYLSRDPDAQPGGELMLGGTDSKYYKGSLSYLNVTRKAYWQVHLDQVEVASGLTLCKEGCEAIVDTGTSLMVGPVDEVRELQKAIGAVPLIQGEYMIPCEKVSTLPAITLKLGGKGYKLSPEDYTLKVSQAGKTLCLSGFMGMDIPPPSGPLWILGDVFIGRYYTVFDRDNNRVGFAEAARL

C#CCOc1cnc2c(Nc3cc(F)c(F)c([C@@]4(C)N=C(N)S[C@@]5(CF)C[C@H]54)c3)ncnc2c1 [Example 813, N-(3-((1S,5S,6S)-3-amino-1-(fluoromethyl)-5-methyl-2-thia-4-azabicyclo[4.1.0]hept-3-en-5-yl)-4,5-difluorophenyl)-7-(2-propyn-1-yloxy)pyrido[3,2-d]pyrimidin-4-amine]
IC50 [1]: 0.002 µM
IC50 (human recombinant BACE1): 0.0009 µM
IC50 (Recombinant Cat D): 447 µM
IC50 (human recombinant BACE2): 0.0258 µM
% Aβ 40 reduction in rat CSF at 10 mpk (Aβ 40 in rat CSF): 68%
% Aβ 40 reduction in rat brain at 10 mpk (Aβ 40 in rat brain): 50%

C[C@]1(c2cc(NC(=O)c3cnc(OCC(F)(F)F)cn3)cc(F)c2F)N=C(N)S[C@@]2(CF)C[C@H]21 [Example 814, N-(3-((1S,5S,6S)-3-amino-1-(fluoromethyl)-5-methyl-2-thia-4-azabicyclo[4.1.0]hept-3-en-5-yl)-4,5-difluorophenyl)-5-(2,2,2-trifluoroethoxy)-2-pyrazinecarboxamide]
IC50 [1]: 0.00608 µM
IC50 (human recombinant BACE1): 0.000829 µM
IC50 (Recombinant Cat D): 595 µM
IC50 (human recombinant BACE2): 0.0601 µM
% Aβ 40 reduction in rat CSF at 10 mpk (Aβ 40 in rat CSF): 76%
% Aβ 40 reduction in rat brain at 10 mpk (Aβ 40 in rat brain): 68%

C#CCOc1cnc2c(Nc3ccc(F)c([C@@]4(C)N=C(N)S[C@@]5(CF)C[C@H]54)c3)nccc2n1 [Example 823, N-(3-((1S,5S,6S)-3-amino-1-(fluoromethyl)-5-methyl-2-thia-4-azabicyclo[4.1.0]hept-3-en-5-yl)-4-fluorophenyl)-2-(2-propyn-1-yloxy)pyrido[3,4-b]pyrazin-5-amine]
IC50 [1]: 0.00186 µM
IC50 (human recombinant BACE1): 0.000791 µM
IC50 (Recombinant Cat D): 351 µM
IC50 (human recombinant BACE2): 0.0296 µM
% Aβ 40 reduction in rat CSF at 10 mpk (Aβ 40 in rat CSF): 78%
% Aβ 40 reduction in rat brain at 10 mpk (Aβ 40 in rat brain): 78%

C#C[C@H](C)Oc1cnc2c(Nc3ccc(F)c([C@@]4(C)N=C(N)S[C@@]5(CF)C[C@H]54)c3)nccc2n1 [Example 827, N-(3-((1S,5S,6S)-3-amino-1-(fluoromethyl)-5-methyl-2-thia-4-azabicyclo[4.1.0]hept-3-en-5-yl)-4-fluorophenyl)-2-(((1S)-1-methyl-2-propyn-1-yl)oxy)pyrido[3,4-b]pyrazin-5-amine]
IC50 [1]: 0.0207 µM
IC50 (human recombinant BACE1): 0.000771 µM
IC50 (Recombinant Cat D): 810 µM
IC50 (human recombinant BACE2): 0.263 µM
% Aβ 40 reduction in rat CSF at 10 mpk (Aβ 40 in rat CSF): 41%
% Aβ 40 reduction in rat brain at 10 mpk (Aβ 40 in rat brain): 19%

Cc1nc(COc2cnc3c(Nc4ccc(F)c([C@@]5(C)N=C(N)S[C@@]6(CF)C[C@H]65)c4)nccc3n2)no1 [Example 828, N-(3-((1S,5S,6S)-3-amino-1-(fluoromethyl)-5-methyl-2-thia-4-azabicyclo[4.1.0]hept-3-en-5-yl)-4-fluorophenyl)-2-((5-methyl-1,2,4-oxadiazol-3-yl)methoxy)pyrido[3,4-b]pyrazin-5-amine]
IC50 [1]: 0.00446 µM
IC50 (human recombinant BACE1): 0.00496 µM
IC50 (Recombinant Cat D): 995 µM
IC50 (human recombinant BACE2): 0.207 µM
% Aβ 40 reduction in rat CSF at 10 mpk (Aβ 40 in rat CSF): 24%
% Aβ 40 reduction in rat brain at 10 mpk (Aβ 40 in rat brain): 10%

COC[C@]12C[C@H]1[C@@](C)(c1cc(NC(=O)c3cnc(OCC(F)(F)F)cn3)ccc1F)N=C(N)S2 [Example 831, N-(3-((1S,5S,6S)-3-amino-1-(methoxymethyl)-5-methyl-2-thia-4-azabicyclo[4.1.0]hept-3-en-5-yl)-4-fluorophenyl)-5-(2,2,2-trifluoroethoxy)-2-pyrazinecarboxamide]
IC50 [1]: 0.00359 µM
IC50 (human recombinant BACE1): 0.00299 µM
IC50 (Recombinant Cat D): > 400 µM
IC50 (human recombinant BACE2): 0.118 µM
% Aβ 40 reduction in rat CSF at 10 mpk (Aβ 40 in rat CSF): 49%
% Aβ 40 reduction in rat brain at 10 mpk (Aβ 40 in rat brain): 16%

C#CCOc1cnc(C(=O)Nc2ccc(F)c([C@@]3(C)N=C(N)S[C@@]4(COC)C[C@H]43)c2)cn1 [Example 834, N-(3-((1S,5S,6S)-3-amino-1-(methoxymethyl)-5-methyl-2-thia-4-azabicyclo[4.1.0]hept-3-en-5-yl)-4-fluorophenyl)-5-(2-propyn-1-yloxy)-2-pyrazinecarboxamide]
IC50 [1]: 0.000489 µM
IC50 (human recombinant BACE1): 0.000404 µM
IC50 (Recombinant Cat D): 318 µM
IC50 (human recombinant BACE2): 0.0127 µM
% Aβ 40 reduction in rat CSF at 10 mpk (Aβ 40 in rat CSF): 83%
% Aβ 40 reduction in rat brain at 10 mpk (Aβ 40 in rat brain): 83%

C#CCOc1cnc2c(Nc3cc(F)c(F)c([C@@]4(CF)N=C(N)S[C@H]5C[C@H]54)c3)nccc2n1 [Example 841, N-(3-((1S,5S,6S)-3-amino-5-(fluoromethyl)-2-thia-4-azabicyclo[4.1.0]hept-3-en-5-yl)-4,5-difluorophenyl)-2-(2-propyn-1-yloxy)pyrido[3,4-b]pyrazin-5-amine]
IC50 [1]: 0.0216 µM
IC50 (human recombinant BACE1): 0.00114 µM
IC50 (Recombinant Cat D): 598 µM
IC50 (human recombinant BACE2): 0.0449 µM
% Aβ 40 reduction in rat CSF at 10 mpk (Aβ 40 in rat CSF): 58%
% Aβ 40 reduction in rat brain at 10 mpk (Aβ 40 in rat brain): 44%

NC1=N[C@](CF)(c2cc(Nc3nccc4nc(OCc5ncco5)cnc34)cc(F)c2F)[C@@H]2C[C@@H]2S1 [Example 842, N-(3-((1S,5S,6S)-3-amino-5-(fluoromethyl)-2-thia-4-azabicyclo[4.1.0]hept-3-en-5-yl)-4,5-difluorophenyl)-2-(1,3-oxazol-2-ylmethoxy)pyrido[3,4-b]pyrazin-5-amine]
IC50 [1]: 0.0217 µM
IC50 (human recombinant BACE1): 0.00256 µM
IC50 (Recombinant Cat D): > 400 µM
IC50 (human recombinant BACE2): 0.119 µM
% Aβ 40 reduction in rat CSF at 10 mpk (Aβ 40 in rat CSF): 51%
% Aβ 40 reduction in rat brain at 10 mpk (Aβ 40 in rat brain): 25%

NC1=N[C@](CF)(c2cc(Nc3nccc4nc(OCc5cocn5)cnc34)cc(F)c2F)[C@@H]2C[C@@H]2S1 [Example 843, N-(3-((1S,5S,6S)-3-amino-5-(fluoromethyl)-2-thia-4-azabicyclo[4.1.0]hept-3-en-5-yl)-4,5-difluorophenyl)-2-(1,3-oxazol-4-ylmethoxy)pyrido[3,4-b]pyrazin-5-amine]
IC50 [1]: 0.0493 µM
IC50 (human recombinant BACE1): 0.00378 µM
IC50 (Recombinant Cat D): 432 µM
IC50 (human recombinant BACE2): 0.115 µM
% Aβ 40 reduction in rat CSF at 10 mpk (Aβ 40 in rat CSF): 51%
% Aβ 40 reduction in rat brain at 10 mpk (Aβ 40 in rat brain): 16%

C#CCOc1cnc2c(Nc3cc(F)c(F)c([C@@]4(C)N=C(N)S[C@@]5(C(N)=O)C[C@H]54)c3)nccc2n1 [Example 911, (1S,5S,6S)-3-amino-5-(2,3-difluoro-5-((2-(2-propyn-1-yloxy)pyrido[3,4-b]pyrazin-5-yl)amino)phenyl)-5-methyl-2-thia-4-azabicyclo[4.1.0]hept-3-ene-1-carboxamide]
IC50 [1]: 0.0038 µM
IC50 (human recombinant BACE1): 0.000649 µM
IC50 (Recombinant Cat D): > 400 µM
IC50 (human recombinant BACE2): 0.00714 µM
% Aβ 40 reduction in rat CSF at 10 mpk (Aβ 40 in rat CSF): 21%
% Aβ 40 reduction in rat brain at 10 mpk (Aβ 40 in rat brain): 20%

C#CCOc1cnc2c(Nc3cc(F)c(F)c([C@@]4(C)N=C(N)S[C@@]5(C(=O)NC)C[C@H]54)c3)nccc2n1 [Example 915, (1S,5S,6S)-3-amino-5-(2,3-difluoro-5-((2-(2-propyn-1-yloxy)pyrido[3,4-b]pyrazin-5-yl)amino)phenyl)-N,5-dimethyl-2-thia-4-azabicyclo[4.1.0]hept-3-ene-1-carboxamide]
IC50 [1]: 0.00195 µM
IC50 (human recombinant BACE1): 0.000426 µM
IC50 (Recombinant Cat D): > 400 µM
IC50 (human recombinant BACE2): 0.0101 µM
% Aβ 40 reduction in rat CSF at 10 mpk (Aβ 40 in rat CSF): 51%
% Aβ 40 reduction in rat brain at 10 mpk (Aβ 40 in rat brain): 47%

C#CCOc1cnc2c(Nc3cc(F)c(F)c([C@@]4(C)N=C(N)S[C@@]5(C#N)C[C@H]54)c3)ncnc2c1 [Example 921, (1S,5S,6S)-3-amino-5-(2,3-difluoro-5-((7-(2-propyn-1-yloxy)pyrido[3,2-d]pyrimidin-4-yl)amino)phenyl)-5-methyl-2-thia-4-azabicyclo[4.1.0]hept-3-ene-1-carbonitrile]
IC50 [1]: 0.0206 µM
IC50 (human recombinant BACE1): 0.00198 µM
IC50 (Recombinant Cat D): 172 µM
IC50 (human recombinant BACE2): 0.0627 µM
% Aβ 40 reduction in rat CSF at 10 mpk (Aβ 40 in rat CSF): 70%
% Aβ 40 reduction in rat brain at 10 mpk (Aβ 40 in rat brain): 64%

C#CCOc1cnc(C(=O)Nc2cc(F)c(F)c([C@@]3(C)N=C(N)S[C@@]4(C#N)C[C@H]43)c2)cn1 [Example 924, N-(3-((1S,5S,6S)-3-amino-1-cyano-5-methyl-2-thia-4-azabicyclo[4.1.0]hept-3-en-5-yl)-4,5-difluorophenyl)-5-(2-propyn-1-yloxy)-2-pyrazinecarboxamide]
IC50 [1]: 0.00138 µM
IC50 (human recombinant BACE1): 0.000249 µM
IC50 (Recombinant Cat D): 17.8 µM
IC50 (human recombinant BACE2): < 0.00203 µM
% Aβ 40 reduction in rat CSF at 10 mpk (Aβ 40 in rat CSF): 84%
% Aβ 40 reduction in rat brain at 10 mpk (Aβ 40 in rat brain): 76%

C#C[C@H](C)Oc1cnc2c(Nc3cc(F)c(F)c([C@@]4(C)N=C(N)S[C@@]5(C#N)C[C@H]54)c3)nccc2n1 [Example 931, (1S,5S,6S)-3-amino-5-(2,3-difluoro-5-((2-(((1S)-1-methyl-2-propyn-1-yl)oxy)pyrido[3,4-b]pyrazin-5-yl)amino)phenyl)-5-methyl-2-thia-4-azabicyclo[4.1.0]hept-3-ene-1-carbonitrile]
IC50 [1]: 0.0386 µM
IC50 (human recombinant BACE1): 0.000902 µM
IC50 (Recombinant Cat D): 633 µM
IC50 (human recombinant BACE2): 0.0551 µM
% Aβ 40 reduction in rat CSF at 10 mpk (Aβ 40 in rat CSF): 8%
% Aβ 40 reduction in rat brain at 10 mpk (Aβ 40 in rat brain): 3%
